This note sets out measurements from ChEMBL document CHEMBL4402557, “Nidufexor (LMB763), a Novel FXR Modulator for the Treatment of Nonalcoholic Steatohepatitis” (J Med Chem, 2020).

The structures appear in SMILES notation. Active and inactive are the calls of the source. The rule behind the calls is not given here.

In one data set the test system is Rattus norvegicus. As to the kind of experiment: In-vivo agonist activity at FXR in orally dosed Han Wistar rat assessed as repression of CYP8b1 mRNA level in liver administered via oral gavage once daily for 14 days measured post last dose by qRT-PCR analysis. The format is functional, organism-based.
The nature of data set [1]: Clearance in Wistar rat at 3 mg/kg, iv. The format is ADME, organism-based. As to conditions: in vivo.
The species named for data set [2] is Mus musculus. The data set is described as follows: Anti Steato-hepatitic activity in C57BL/6J mouse STAM model assessed as change in OSTb gene level in liver. The format is functional, organism-based.
Data set [3] in a line: Oral bioavailability in Wistar rat at 100 mg/kg in presence of TRIS salt. The format is ADME, organism-based. As to conditions: in vivo.
The nature of data set [4]: Half life in Wistar rat at 3 mg/kg, iv. The format is ADME, organism-based. As to conditions: in vivo.
Data set [5] is described as follows: Volume of distribution at steady state in Wistar rat at 3 mg/kg, iv. The format is ADME, organism-based. The settings on record: in vivo, read-out: Vdss.
Data set [6] has as its target T1, Bile acid receptor (Rattus norvegicus) (UniProt Q62735).
T1 sequence (whole entry): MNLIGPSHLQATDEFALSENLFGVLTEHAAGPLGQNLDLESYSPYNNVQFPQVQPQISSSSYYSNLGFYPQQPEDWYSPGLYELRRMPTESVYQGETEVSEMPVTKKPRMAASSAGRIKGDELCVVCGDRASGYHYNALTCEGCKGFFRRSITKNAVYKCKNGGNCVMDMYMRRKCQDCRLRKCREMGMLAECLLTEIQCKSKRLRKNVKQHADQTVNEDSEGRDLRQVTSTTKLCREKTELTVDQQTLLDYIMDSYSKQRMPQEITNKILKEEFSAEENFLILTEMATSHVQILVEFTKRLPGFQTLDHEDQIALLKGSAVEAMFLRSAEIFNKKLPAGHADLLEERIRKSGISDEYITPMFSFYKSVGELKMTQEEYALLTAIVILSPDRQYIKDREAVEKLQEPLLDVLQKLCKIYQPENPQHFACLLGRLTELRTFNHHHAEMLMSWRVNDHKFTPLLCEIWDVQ
As to the kind of experiment: Agonist activity at FXR in rat primary hepatocytes assessed as increase in BSEP mRNA level incubated for 24 hrs by qRT-PCR analysis relative to tropifexor. The format is cell-based.

Data set [7] concerns the target T2, Retinoic acid receptor RXR-alpha (Homo sapiens, UniProt P19793).
T2 sequence (P19793 whole entry): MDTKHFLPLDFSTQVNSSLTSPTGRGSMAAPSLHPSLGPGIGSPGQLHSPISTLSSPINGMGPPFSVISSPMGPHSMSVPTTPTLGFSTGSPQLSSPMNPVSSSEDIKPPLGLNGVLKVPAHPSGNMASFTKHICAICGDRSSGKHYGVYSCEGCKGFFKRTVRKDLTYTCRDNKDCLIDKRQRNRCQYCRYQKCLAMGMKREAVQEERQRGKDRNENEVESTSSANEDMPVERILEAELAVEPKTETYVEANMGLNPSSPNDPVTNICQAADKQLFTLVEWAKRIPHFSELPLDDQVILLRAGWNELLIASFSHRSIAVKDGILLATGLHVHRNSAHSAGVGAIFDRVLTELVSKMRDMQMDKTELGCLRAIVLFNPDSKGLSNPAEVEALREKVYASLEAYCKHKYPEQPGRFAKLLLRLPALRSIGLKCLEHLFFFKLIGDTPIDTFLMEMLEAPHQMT
As to the kind of experiment: Agonist activity at GAL4-fused RXR LBD (unknown origin) expressed in HEK293T cells incubated for 24 by BrightGlo reagent based assay. The format is cell-based.

Data set [8] can be described thus: AUC in Wistar rat at 3 mg/kg, po. The format is ADME, organism-based. As to conditions: in vivo.
The target of data set [9] is T3, Peroxisome proliferator-activated receptor gamma (Homo sapiens, UniProt P37231).
T3 sequence (P37231 whole entry): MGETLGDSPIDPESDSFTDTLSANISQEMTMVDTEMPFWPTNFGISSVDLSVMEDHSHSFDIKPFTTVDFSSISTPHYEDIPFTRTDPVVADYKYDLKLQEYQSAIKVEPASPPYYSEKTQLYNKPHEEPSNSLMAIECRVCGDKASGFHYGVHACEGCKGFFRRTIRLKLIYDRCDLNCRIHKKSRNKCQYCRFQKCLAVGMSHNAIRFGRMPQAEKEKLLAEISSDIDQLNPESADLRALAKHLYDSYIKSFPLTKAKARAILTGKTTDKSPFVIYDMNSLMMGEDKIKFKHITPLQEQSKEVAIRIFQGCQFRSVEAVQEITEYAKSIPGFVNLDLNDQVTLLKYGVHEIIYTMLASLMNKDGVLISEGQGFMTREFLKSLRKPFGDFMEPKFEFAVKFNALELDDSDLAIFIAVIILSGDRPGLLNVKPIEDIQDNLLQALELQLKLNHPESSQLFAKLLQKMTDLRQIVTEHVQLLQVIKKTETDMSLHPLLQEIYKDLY
The data set is described as follows: Agonist activity at GAL4-fused PPARgamma (unknown origin) expressed in HEK293T cells incubated for 24 by BrightGlo reagent based assay. The format is cell-based.

A short description of data set [10]: Oral bioavailability in dog at 2 mg/kg. The format is ADME, organism-based, Canis lupus familiaris. The settings on record: in vivo.
Data set [11] relates to Mus musculus. As to the kind of experiment: Anti Steato-hepatitic activity in STZ/HFD induced oral dosed C57BL/6J mouse STAM model assessed as reduction in hepatocellular ballooning administered via oral gavage once daily for 3 weeks and measured on 9 week by H and E staining based assay. The format is functional, organism-based.
Data set [12] in a line: Metabolic stability in human liver microsomes assessed as hepatic extraction ratio. The format is ADME, Microsome. As to conditions: read-out: ERH.
Data set [13] can be described thus: Cmax in Wistar rat at 100 mg/kg, po. The format is ADME, organism-based. Set-up: dose 100 mg/kg, route oral. As to conditions: in vivo.
Data set [14] can be described thus: Oral bioavailability in Wistar rat at 100 mg/kg. The format is ADME, organism-based. The settings on record: in vivo.
In data set [15] the target is T1, Bile acid receptor (Rattus norvegicus). As to the kind of experiment: Agonist activity at FXR in rat primary hepatocytes assessed as increase in SHP mRNA level incubated for 24 hrs by qRT-PCR analysis relative to tropifexor. The format is cell-based.
Data set [16] is described as follows: Cmax in Wistar rat at 30 mg/kg, po. The format is ADME, organism-based. Set-up: dose 30 mg/kg, route oral. The settings on record: in vivo.
The target in the next data set is T4, Bile acid receptor (Homo sapiens, UniProt Q96RI1).
T4 sequence (Q96RI1 whole entry): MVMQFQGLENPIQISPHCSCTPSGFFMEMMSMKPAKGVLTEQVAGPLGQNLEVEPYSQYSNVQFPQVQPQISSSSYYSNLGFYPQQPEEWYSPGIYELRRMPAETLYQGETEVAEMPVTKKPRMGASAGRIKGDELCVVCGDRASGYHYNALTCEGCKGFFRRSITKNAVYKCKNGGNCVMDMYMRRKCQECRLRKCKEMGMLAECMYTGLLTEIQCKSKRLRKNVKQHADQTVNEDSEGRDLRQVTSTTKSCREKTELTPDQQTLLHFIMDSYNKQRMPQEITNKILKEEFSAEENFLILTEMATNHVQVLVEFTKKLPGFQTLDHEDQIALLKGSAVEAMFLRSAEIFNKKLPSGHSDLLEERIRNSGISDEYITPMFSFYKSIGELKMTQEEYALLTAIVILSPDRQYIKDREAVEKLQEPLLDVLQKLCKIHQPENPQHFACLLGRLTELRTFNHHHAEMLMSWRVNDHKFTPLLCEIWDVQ
The data set is described as follows: Agonist activity at GST-tagged human FXR-LBD (193 to 472 residues) using biotinylated SRC-1 peptide as substrate incubated for 1 hrs by HTRF assay.

Data set [17] can be described thus: Metabolic stability in rat liver microsomes assessed as hepatic extraction ratio. The format is ADME, Microsome. The settings on record: read-out: ERH.
Data set [18] can be described thus: Oral bioavailability in Wistar rat at 10 mg/kg in presence of 0.5% CMC/0.5% Tween 80. The settings on record: in vivo. The format is ADME, organism-based.
Data set [19] in a line: Cmax in Wistar rat at 300 mg/kg, po. The format is ADME, organism-based. More on the design: dose 300 mg/kg, route oral. As to conditions: in vivo.

For the compound `Cn1nc(C(=O)N(Cc2ccccc2)Cc2ccc(C(=O)O)cc2)c2c1-c1cc(Cl)ccc1OC2` [NIDUFEXOR], the result with Rattus norvegicus and in the data set listed under Mus musculus [2] was Active. For the same compound, the clearance in data set [1] is 7 mL/min/kg. The bioavailability in data set [3] is 82%; in data set [10], 80%; in data set [14], 82%; in data set [18], 10%. Further, in data set [4], the half-life was 3 h. Besides, in data set [5], the Vd stood at 0.8 L/kg. Also, the Activity in [6] was 3.7%; in the data set on Mus musculus [11], “Dose-dependent effect”; in data set [15] it was 65%. The EC50 in data set [7] is above 10 µM; in [9] it was above 10 µM; on Bile acid receptor, 0.007 µM. This compound came in with an AUC in data set [8] of 9.2 µM·h. The hepatic extraction ratio in data set [12] was below 0.21; in data set [17], below 0.18. Moreover, the results for the Cmax in data set [13], in data set [16] and in data set [19] were 80.9 µM, 28.1 µM and 141 µM, respectively.
